# Measurements reported in the NIST ThermoML archive (doi:10.1016/j.jct.2007.08.002).
# Numbers after ± are expanded uncertainties.
# Experiment: molar heat capacity at saturation pressure
compound,measurement,setting,value
"NC12CC3CC(CC(C3)C1)C2 [tricyclo(3.3.1.1:3,7)decan-1-amine]",molar heat capacity,"269.16 K, Crystal 2",252.76 ± 4.8 J/K/mol
same,molar heat capacity,"271.09 K, Crystal 2",258.66 ± 4.9 J/K/mol
same,molar heat capacity,"273 K, Crystal 2",272.05 ± 5.2 J/K/mol
same,molar heat capacity,"274.91 K, Crystal 2",282.28 ± 5.3 J/K/mol
same,molar heat capacity,"276.81 K, Crystal 2",299.57 ± 5.6 J/K/mol
same,molar heat capacity,"278.68 K, Crystal 2",329.42 ± 6.1 J/K/mol
same,molar heat capacity,"280.53 K, Crystal 2",365.67 ± 6.7 J/K/mol
same,molar heat capacity,"282.42 K, Crystal 2",373.74 ± 8.6 J/K/mol
same,molar heat capacity,"288.85 K, Crystal 1, Small (less than 1 g) adiabatic calorimetry",291.09 ± 4.9 J/K/mol
same,molar heat capacity,"293.37 K, Crystal 1, Small (less than 1 g) adiabatic calorimetry",265.9 ± 1.2 J/K/mol
same,molar heat capacity,"295.36 K, Crystal 1, Small (less than 1 g) adiabatic calorimetry",265.81 ± 1.2 J/K/mol
same,molar heat capacity,"297.3 K, Crystal 1, Small (less than 1 g) adiabatic calorimetry",265.98 ± 1.2 J/K/mol
same,molar heat capacity,"299.23 K, Crystal 1, Small (less than 1 g) adiabatic calorimetry",266.56 ± 1.2 J/K/mol
same,molar heat capacity,"301.17 K, Crystal 1, Small (less than 1 g) adiabatic calorimetry",266.89 ± 1.2 J/K/mol
same,molar heat capacity,"303.1 K, Crystal 1, Small (less than 1 g) adiabatic calorimetry",267.48 ± 1.2 J/K/mol
same,molar heat capacity,"305.04 K, Crystal 1, Small (less than 1 g) adiabatic calorimetry",267.89 ± 1.2 J/K/mol
same,molar heat capacity,"306.98 K, Crystal 1, Small (less than 1 g) adiabatic calorimetry",268.56 ± 1.2 J/K/mol
same,molar heat capacity,"308.92 K, Crystal 1, Small (less than 1 g) adiabatic calorimetry",268.89 ± 1.2 J/K/mol
same,molar heat capacity,"309.23 K, Crystal 1, Small (less than 1 g) adiabatic calorimetry",268.97 ± 1.2 J/K/mol
same,molar heat capacity,"310.85 K, Crystal 1, Small (less than 1 g) adiabatic calorimetry",268.89 ± 1.2 J/K/mol
same,molar heat capacity,"311.41 K, Crystal 1, Small (less than 1 g) adiabatic calorimetry",269.47 ± 1.2 J/K/mol
same,molar heat capacity,"312.79 K, Crystal 1, Small (less than 1 g) adiabatic calorimetry",269.39 ± 1.2 J/K/mol
same,molar heat capacity,"313.59 K, Crystal 1, Small (less than 1 g) adiabatic calorimetry",269.97 ± 1.2 J/K/mol
same,molar heat capacity,"314.73 K, Crystal 1, Small (less than 1 g) adiabatic calorimetry",269.97 ± 1.2 J/K/mol
same,molar heat capacity,"315.77 K, Crystal 1, Small (less than 1 g) adiabatic calorimetry",270.14 ± 1.2 J/K/mol
same,molar heat capacity,"316.67 K, Crystal 1, Small (less than 1 g) adiabatic calorimetry",270.05 ± 1.2 J/K/mol
same,molar heat capacity,"317.96 K, Crystal 1, Small (less than 1 g) adiabatic calorimetry",270.55 ± 1.2 J/K/mol
same,molar heat capacity,"318.61 K, Crystal 1, Small (less than 1 g) adiabatic calorimetry",270.8 ± 1.2 J/K/mol
same,molar heat capacity,"320.14 K, Crystal 1, Small (less than 1 g) adiabatic calorimetry",270.97 ± 1.2 J/K/mol
same,molar heat capacity,"320.55 K, Crystal 1, Small (less than 1 g) adiabatic calorimetry",271.05 ± 1.2 J/K/mol
same,molar heat capacity,"322.32 K, Crystal 1, Small (less than 1 g) adiabatic calorimetry",271.47 ± 1.2 J/K/mol
same,molar heat capacity,"324.44 K, Crystal 1, Small (less than 1 g) adiabatic calorimetry",271.8 ± 1.2 J/K/mol
same,molar heat capacity,"324.5 K, Crystal 1, Small (less than 1 g) adiabatic calorimetry",272.13 ± 1.3 J/K/mol
same,molar heat capacity,"326.39 K, Crystal 1, Small (less than 1 g) adiabatic calorimetry",272.55 ± 1.3 J/K/mol
same,molar heat capacity,"326.7 K, Crystal 1, Small (less than 1 g) adiabatic calorimetry",272.05 ± 1.3 J/K/mol
same,molar heat capacity,"328.33 K, Crystal 1, Small (less than 1 g) adiabatic calorimetry",272.71 ± 1.3 J/K/mol
same,molar heat capacity,"328.88 K, Crystal 1, Small (less than 1 g) adiabatic calorimetry",272.88 ± 1.3 J/K/mol
same,molar heat capacity,"330.27 K, Crystal 1, Small (less than 1 g) adiabatic calorimetry",273.05 ± 1.3 J/K/mol
same,molar heat capacity,"331.06 K, Crystal 1, Small (less than 1 g) adiabatic calorimetry",273.71 ± 1.3 J/K/mol
same,molar heat capacity,"332.22 K, Crystal 1, Small (less than 1 g) adiabatic calorimetry",273.55 ± 1.3 J/K/mol
same,molar heat capacity,"333.25 K, Crystal 1, Small (less than 1 g) adiabatic calorimetry",273.88 ± 1.3 J/K/mol
same,molar heat capacity,"334.16 K, Crystal 1, Small (less than 1 g) adiabatic calorimetry",273.8 ± 1.3 J/K/mol
same,molar heat capacity,"335.43 K, Crystal 1, Small (less than 1 g) adiabatic calorimetry",274.38 ± 1.3 J/K/mol
same,molar heat capacity,"336.11 K, Crystal 1, Small (less than 1 g) adiabatic calorimetry",274.21 ± 1.3 J/K/mol
same,molar heat capacity,"337.62 K, Crystal 1, Small (less than 1 g) adiabatic calorimetry",274.79 ± 1.3 J/K/mol
same,molar heat capacity,"338.05 K, Crystal 1, Small (less than 1 g) adiabatic calorimetry",274.88 ± 1.3 J/K/mol
same,molar heat capacity,"339.81 K, Crystal 1, Small (less than 1 g) adiabatic calorimetry",275.29 ± 1.3 J/K/mol
same,molar heat capacity,"340 K, Crystal 1, Small (less than 1 g) adiabatic calorimetry",275.21 ± 1.3 J/K/mol
same,molar heat capacity,"341.94 K, Crystal 1, Small (less than 1 g) adiabatic calorimetry",275.79 ± 1.3 J/K/mol
same,molar heat capacity,"342 K, Crystal 1, Small (less than 1 g) adiabatic calorimetry",275.96 ± 1.3 J/K/mol
same,molar heat capacity,"343.89 K, Crystal 1, Small (less than 1 g) adiabatic calorimetry",276.54 ± 1.3 J/K/mol
same,molar heat capacity,"344.18 K, Crystal 1, Small (less than 1 g) adiabatic calorimetry",276.79 ± 1.3 J/K/mol
same,molar heat capacity,"345.84 K, Crystal 1, Small (less than 1 g) adiabatic calorimetry",277.2 ± 1.3 J/K/mol
same,molar heat capacity,"346.37 K, Crystal 1, Small (less than 1 g) adiabatic calorimetry",277.45 ± 1.3 J/K/mol
same,molar heat capacity,"347.78 K, Crystal 1, Small (less than 1 g) adiabatic calorimetry",277.79 ± 1.3 J/K/mol
same,molar heat capacity,"348.56 K, Crystal 1, Small (less than 1 g) adiabatic calorimetry",278.2 ± 1.3 J/K/mol
same,molar heat capacity,"349.73 K, Crystal 1, Small (less than 1 g) adiabatic calorimetry",278.37 ± 1.3 J/K/mol
same,molar heat capacity,"350.75 K, Crystal 1, Small (less than 1 g) adiabatic calorimetry",279.03 ± 1.3 J/K/mol
same,molar heat capacity,"351.68 K, Crystal 1, Small (less than 1 g) adiabatic calorimetry",278.87 ± 1.3 J/K/mol
same,molar heat capacity,"352.94 K, Crystal 1, Small (less than 1 g) adiabatic calorimetry",279.78 ± 1.3 J/K/mol
same,molar heat capacity,"353.63 K, Crystal 1, Small (less than 1 g) adiabatic calorimetry",279.37 ± 1.3 J/K/mol
same,molar heat capacity,"355.12 K, Crystal 1, Small (less than 1 g) adiabatic calorimetry",280.28 ± 1.3 J/K/mol
same,molar heat capacity,"355.58 K, Crystal 1, Small (less than 1 g) adiabatic calorimetry",280.45 ± 1.3 J/K/mol
same,molar heat capacity,"357.31 K, Crystal 1, Small (less than 1 g) adiabatic calorimetry",281.03 ± 1.3 J/K/mol
same,molar heat capacity,"357.53 K, Crystal 1, Small (less than 1 g) adiabatic calorimetry",281.03 ± 1.3 J/K/mol
same,molar heat capacity,"359.47 K, Crystal 1, Small (less than 1 g) adiabatic calorimetry",281.86 ± 1.3 J/K/mol
same,molar heat capacity,"359.5 K, Crystal 1, Small (less than 1 g) adiabatic calorimetry",282.03 ± 1.3 J/K/mol
same,molar heat capacity,"361.42 K, Crystal 1, Small (less than 1 g) adiabatic calorimetry",282.61 ± 1.3 J/K/mol
same,molar heat capacity,"361.71 K, Crystal 1, Small (less than 1 g) adiabatic calorimetry",282.53 ± 1.3 J/K/mol
same,molar heat capacity,"363.37 K, Crystal 1, Small (less than 1 g) adiabatic calorimetry",283.36 ± 1.3 J/K/mol
same,molar heat capacity,"363.9 K, Crystal 1, Small (less than 1 g) adiabatic calorimetry",283.52 ± 1.3 J/K/mol
same,molar heat capacity,"365.32 K, Crystal 1, Small (less than 1 g) adiabatic calorimetry",284.52 ± 1.3 J/K/mol
same,molar heat capacity,"366.08 K, Crystal 1, Small (less than 1 g) adiabatic calorimetry",284.69 ± 1.3 J/K/mol
same,molar heat capacity,"367.27 K, Crystal 1, Small (less than 1 g) adiabatic calorimetry",285.52 ± 1.3 J/K/mol
